{"source": "ChEMBL document CHEMBL5352452", "about": "“Design, synthesis and pharmacological evaluation of β-carboline derivatives as potential antitumor agent via targeting autophagy” (Eur J Med Chem, 2023)", "key": {"BGC-823": {"system": "BGC-823", "assay": "Antiproliferative activity against human BGC-823 cells assessed as inhibition of cell growth measured after 48 hrs by MTT assay", "format": "functional, cell-based", "conditions": "BGC-823, 48 h"}, "MCF7": {"system": "MCF7", "assay": "Antiproliferative activity against human MCF7 cells assessed as inhibition of cell growth measured after 48 hrs by MTT assay", "format": "functional, cell-based", "conditions": "MCF7, 48 h"}, "786-0": {"system": "786-0", "assay": "Antiproliferative activity against human 786-0 cells assessed as inhibition of cell growth measured after 48 hrs by MTT assay", "format": "functional, cell-based", "conditions": "786-0, 48 h"}, "[1]": {"assay": "Antiproliferative activity against human BIU-87 cells assessed as inhibition of cell growth measured after 48 hrs by MTT assay", "format": "functional, cell-based", "conditions": "BIU87, 48 h"}, "KB": {"system": "KB", "assay": "Antiproliferative activity against human KB cells assessed as inhibition of cell growth measured after 48 hrs by MTT assay", "format": "functional, cell-based"}, "CWR22R": {"system": "CWR22R", "assay": "Antiproliferative activity against human 22Rv1 cells assessed as inhibition of cell growth measured after 48 hrs by MTT assay", "format": "functional, cell-based", "conditions": "22Rv1, 48 h"}, "HCT-116 [2]": {"system": "HCT-116", "assay": "Antiproliferative activity against human HCT-116 cells assessed as inhibition of cell growth at 1 to 4 uM by CCK-8 assay", "format": "functional, cell-based", "conditions": "dose 1-4 µM, time <= 7.0 day, TDE = time-dependent effect"}, "HCT-116 [3]": {"system": "HCT-116", "assay": "Induction of morphological changes in human HCT-116 cells assessed as appearance of round cells at 2 to 6 uM measured after 24 hrs by microscopic analysis", "format": "functional, cell-based", "conditions": "dose 2-6 µM"}, "HCT-116 [4]": {"system": "HCT-116", "assay": "Induction of morphological changes in human HCT-116 cells assessed as appearance of wrinkled cells at 2 to 6 uM measured after 24 hrs by microscopic analysis", "format": "functional, cell-based", "conditions": "dose 2-6 µM"}, "HCT-116 [5]": {"system": "HCT-116", "assay": "Induction of apoptosis in human HCT-116 cells assessed as viable cells at 1 uM incubated for 24 hrs by annexin V FITC/propidium iodide staining based flow cytometry (reference value: 83 %)", "format": "functional", "conditions": "read-out: Activity"}, "HCT-116 [6]": {"system": "HCT-116", "assay": "Induction of apoptosis in human HCT-116 cells assessed as early apoptotic cells at 1 uM incubated for 24 hrs by annexin V FITC/propidium iodide staining based flow cytometry (reference value: 4.7%)", "format": "functional"}, "HCT-116 [7]": {"system": "HCT-116", "assay": "Induction of apoptosis in human HCT-116 cells assessed as early apoptotic cells at 2 uM incubated for 24 hrs by annexin V FITC/propidium iodide staining based flow cytometry (reference value: 4.7%)", "format": "functional"}, "HCT-116 [8]": {"system": "HCT-116", "assay": "Induction of apoptosis in human HCT-116 cells assessed as necrotic cells at 2 uM incubated for 24 hrs by annexin V FITC/propidium iodide staining based flow cytometry (reference value: 7.7%)", "format": "functional"}, "HCT-116 [9]": {"system": "HCT-116", "assay": "Induction of apoptosis in human HCT-116 cells assessed as viable cells at 1 uM incubated for 24 hrs in presence of Z-VAD-FMK by annexin V FITC/propidium iodide staining based flow cytometry (reference value: 86.2 %)", "format": "functional", "conditions": "read-out: Activity"}, "HCT-116 [10]": {"system": "HCT-116", "assay": "Induction of apoptosis in human HCT-116 cells assessed as early apoptotic cells at 1 uM incubated for 24 hrs in presence of Z-VAD-FMK by annexin V FITC/propidium iodide staining based flow cytometry (reference value: 6.3 %)", "format": "functional"}, "HCT-116 [11]": {"system": "HCT-116", "assay": "Induction of apoptosis in human HCT-116 cells assessed as late apoptotic cells at 1 uM incubated for 24 hrs in presence of Z-VAD-FMK by annexin V FITC/propidium iodide staining based flow cytometry (reference value: 4.6 %)", "format": "functional"}, "HCT-116 [12]": {"system": "HCT-116", "assay": "Induction of apoptosis in human HCT-116 cells assessed as necrotic cells at 2 uM incubated for 24 hrs in presence of Z-VAD-FMK by annexin V FITC/propidium iodide staining based flow cytometry (reference value: 2.9 %)", "format": "functional"}, "HCT-116 [13]": {"system": "HCT-116", "assay": "Induction of apoptosis in human HCT-116 cells assessed as increase in cleaved caspase 3 expression upto 5 uM incubated for 24 hrs by Western blot analysis", "format": "functional, cell-based"}, "HCT-116 [14]": {"system": "HCT-116", "assay": "Induction of apoptosis in human HCT-116 cells assessed as increase in caspase 3 expression upto 5 uM incubated for 24 hrs by Western blot analysis", "format": "functional, cell-based"}, "HCT-116 [15]": {"system": "HCT-116", "assay": "Antiproliferative activity against p53 knockout human HCT-116 cells assessed as inhibition of cell growth measured after 24 hrs by CCK-8 assay", "format": "functional, cell-based", "conditions": "HCT-116, 24 h"}, "HCT-116 [16]": {"system": "HCT-116", "assay": "Induction of apoptosis in p53 knockout human HCT-116 cells assessed as increase in LC3-II expression upto 4 uM incubated for 24 hrs by Western blot analysis", "format": "functional, cell-based"}, "HCT-116 [17]": {"system": "HCT-116", "assay": "Induction of autophagy in human HCT-116 cells expressing assessed as LC3B-EGFP-mCherry at 2 to 4 uM incubated for 24 hrs by DAPI staining based confocal microscopic analysis", "format": "functional, cell-based", "conditions": "dose 2-4 µM"}, "HCT-116 [18]": {"system": "HCT-116", "assay": "Induction of autophagy in human HCT-116 cells assessed as increase in LC3-II expression upto 5 uM incubated for 24 hrs by Western blot analysis", "format": "functional, cell-based"}, "HCT-116 [19]": {"system": "HCT-116", "assay": "Induction of autophagy in human HCT-116 cells assessed as increase in p62 expression upto 5 uM incubated for 24 hrs by Western blot analysis", "format": "functional, cell-based"}, "HCT-116 [20]": {"system": "HCT-116", "assay": "Induction of autophagy in human HCT-116 cells assessed as increase in LC3-II expression at 3 uM measured upto 36 hrs by Western blot analysis", "format": "functional, cell-based"}, "HCT-116 [21]": {"system": "HCT-116", "assay": "Induction of autophagy in human HCT-116 cells assessed as increase in p62 expression at 3 uM measured upto 36 hrs by Western blot analysis", "format": "functional, cell-based"}, "HCT-116 [22]": {"system": "HCT-116", "assay": "Induction of autophagy in human HCT-116 cells assessed as increase in p62 expression at 3 uM measured after 48 to 60 hrs by Western blot analysis", "format": "functional, cell-based", "conditions": "time 48-60 hrs"}, "HCT-116 [23]": {"system": "HCT-116", "assay": "Antiproliferative activity against ATG5 knockout human HCT-116 cells assessed as inhibition of cell growth measured after 24 hrs by CCK-8 assay", "format": "functional, cell-based", "conditions": "HCT-116, 24 h"}, "HCT-116 [24]": {"system": "HCT-116", "assay": "Antiproliferative activity against ATG7 knockout human HCT-116 cells assessed as inhibition of cell growth measured after 24 hrs by CCK-8 assay", "format": "functional, cell-based", "conditions": "HCT-116, 24 h"}, "HCT-116 [25]": {"system": "HCT-116", "assay": "Inhibition of colony formation in ATG5 knockout human HCT-116 cells upto 4 uM […] by crystal violet staining based analysis", "format": "functional, cell-based"}, "HCT-116 [26]": {"system": "HCT-116", "assay": "Inhibition of colony formation in ATG7 knockout human HCT-116 cells upto 4 uM […] by crystal violet staining based analysis", "format": "functional, cell-based"}, "HCT-116 [27]": {"system": "HCT-116", "assay": "Induction of autophagy in human HCT-116 cells expressing ATG7-FLAG assessed as increase in LC3-II expression upto 4 uM measured after 24 hrs by Western blot analysis", "format": "functional, cell-based"}, "CT26": {"system": "CT26", "assay": "Antitumor activity against […] CT26 cells xenografted in C57BL/6 mouse assessed as reduction in tumor volume at 45 mg/kg, ip administered once every two days measured after 8 days", "format": "functional, organism-based", "conditions": "time 8.0 day"}, "HCT-116 [28]": {"system": "HCT-116", "assay": "Upregulation of hedgehog signaling pathway in human HCT-116 cells at 2 uM incubated for 24 hrs by RNA sequencing analysis", "format": "functional, cell-based"}, "HCT-116 [29]": {"system": "HCT-116", "assay": "Upregulation of IFN-alpha response pathway in human HCT-116 cells at 2 uM incubated for 24 hrs by RNA sequencing analysis", "format": "functional, cell-based"}, "HCT-116 [30]": {"system": "HCT-116", "assay": "Upregulation of Kras signaling pathway in human HCT-116 cells at 2 uM incubated for 24 hrs by RNA sequencing analysis", "format": "functional, cell-based"}, "HCT-116 [31]": {"system": "HCT-116", "assay": "Downregulation of Myc-v2 in human HCT-116 cells at 2 uM incubated for 24 hrs by RNA sequencing analysis", "format": "functional, cell-based"}, "HCT-116 [32]": {"system": "HCT-116", "assay": "Downregulation of oxidative phosphorylation gene in human HCT-116 cells at 2 uM incubated for 24 hrs by RNA sequencing analysis", "format": "functional, cell-based"}}, "note": "Active and inactive are the calls of the source. No cut-off for these calls is given here."}
{"molecule": "CN1CCN(Cc2cc3c4ccccc4n(CCCc4ccccc4)c3c(CN3CCN(C)CC3)n2)CC1", "values": [{"measurement": "IC50", "setting": "BGC-823", "value": 24.8, "unit": "µM"}, {"measurement": "IC50", "setting": "MCF7", "value": 13.5, "unit": "µM"}, {"measurement": "IC50", "setting": "786-0", "value": 2.71, "unit": "µM"}, {"measurement": "IC50", "setting": "[1]", "value": 4.53, "unit": "µM"}, {"measurement": "IC50", "setting": "KB", "value": 8.12, "unit": "µM"}, {"measurement": "IC50", "setting": "CWR22R", "value": 3.86, "unit": "µM"}, {"measurement": "Activity", "setting": "HCT-116 [2]", "value": "Tde"}, {"measurement": "Activity", "setting": "HCT-116 [3]", "value": "Active"}, {"measurement": "Activity", "setting": "HCT-116 [4]", "value": "Active"}, {"measurement": "viability at 1 µM", "setting": "HCT-116 [5]", "value": 83.3, "unit": "%"}, {"measurement": "Activity", "setting": "HCT-116 [6]", "value": 5.1, "unit": "%"}, {"measurement": "Activity", "setting": "HCT-116 [7]", "value": 6.2, "unit": "%"}, {"measurement": "Activity", "setting": "HCT-116 [8]", "value": 4.9, "unit": "%"}, {"measurement": "viability at 1 µM", "setting": "HCT-116 [9]", "value": 84.8, "unit": "%"}, {"measurement": "Activity", "setting": "HCT-116 [10]", "value": 6.7, "unit": "%"}, {"measurement": "Activity", "setting": "HCT-116 [11]", "value": 4.9, "unit": "%"}, {"measurement": "Activity", "setting": "HCT-116 [12]", "value": 6.3, "unit": "%"}, {"measurement": "Activity", "setting": "HCT-116 [13]", "value": "inactive"}, {"measurement": "Activity", "setting": "HCT-116 [14]", "value": "inactive"}, {"measurement": "IC50", "setting": "HCT-116 [15]", "value": 4.71, "unit": "µM"}, {"measurement": "Activity", "setting": "HCT-116 [16]", "value": "Active"}, {"measurement": "Activity", "setting": "HCT-116 [17]", "value": "Active"}, {"measurement": "Activity", "setting": "HCT-116 [18]", "value": "Active"}, {"measurement": "Activity", "setting": "HCT-116 [19]", "value": "Active"}, {"measurement": "Activity", "setting": "HCT-116 [20]", "value": "Active"}, {"measurement": "Activity", "setting": "HCT-116 [21]", "value": "Active"}, {"measurement": "Activity", "setting": "HCT-116 [22]", "value": "inactive"}, {"measurement": "IC50", "setting": "HCT-116 [23]", "value": 7.36, "unit": "µM"}, {"measurement": "IC50", "setting": "HCT-116 [24]", "value": 7.89, "unit": "µM"}, {"measurement": "inhibition", "setting": "HCT-116 [25]", "value": "inactive"}, {"measurement": "inhibition", "setting": "HCT-116 [26]", "value": "inactive"}, {"measurement": "Activity", "setting": "HCT-116 [27]", "value": "Active"}, {"measurement": "Activity", "setting": "CT26", "value": "Active"}, {"measurement": "Activity", "setting": "HCT-116 [28]", "value": "Active"}, {"measurement": "Activity", "setting": "HCT-116 [29]", "value": "Active"}, {"measurement": "Activity", "setting": "HCT-116 [30]", "value": "Active"}, {"measurement": "Activity", "setting": "HCT-116 [31]", "value": "Active"}, {"measurement": "Activity", "setting": "HCT-116 [32]", "value": "Active"}]}
